# Measured values as given in patent US8933029B2, “Antimicrobial and anti-inflammatory peptides” (Carrus Capital Corporation, priority 2001, dated 2015).
# Marks after values point to notes of the source that are not given here. Ends that are not written are not given here.
# Tests used:
# TPA-induced ear edema = assay: TPA ear edema model; settings: for Topical Dose (% change vs. vehicle) 0.1%: topical 0.1%; for Topical Dose (% change vs. vehicle) 0.1% / Topical Dose (% change vs. vehicle) 1.0% / Topical Dose (% change vs. vehicle) 5 0%: ear biopsy weight six hours after TPA; for Topical Dose (% change vs. vehicle) 1.0%: topical 1.0%
# [1] = tested on: oxazolone contact hypersensitivity (ear inflammation); assay: Oxazolone contact hypersensitivity model; format: in vivo, CD-1 mice; settings: Dosage of 0.1%, applied to ear one hour after oxazolone challenge, ear punch weight after 24 h, 70% EtOH/30% propylene glycol vehicle
# Procedure: Briefly, a 3.0% (w/v) solution of oxazolone in acetone/corn oil (5:1) is applied topically to the skin on the shaved abdomens of mice of approximately the same weight and approximately the same age on day 0. […] Twenty-four hours later a dermal biopsy punch of the treated ear is taken and weighed.
# CD-1 mice are treated with 3% oxazolone (Sigma) (30 mg/ml) in corn oil:acetone on a shaved abdomen. All solutions are sonicated for 7 minutes. Five days later, the mice are challenged with a 2% oxazolone (20 mg/ml) in acetone on the left ear, with the right ear being left untreated (control). One hour after challenge, the candidate peptide in a 70% EtOH/30% propylene glycol formulation (vehicle) was applied to the left ear, with the right ear being left untreated. After 24 h, 7 mm ear punches are taken from each ear of the mice. The ear punches are placed on a scale and the difference between the treated and untreated ears were compared. The percent inhibition of inflammation was calculated by comparing the mean of each treated group to the control group. The positive control is hydrocortisone (a known anti-inflammatory agent). Most of the indolicidin peptides inhibited inflammation as well as hydrocortisone.
# [2] = formulated in 50% ethanol/5 mM lactate buffer (*)
# [3] = topical 5 0%, formulated in 50% ethanol/5 mM lactate buffer (*)
# [4] = topical 5.0%, formulated in 95% ethanol
Compound,Topical Dose (% change vs. vehicle) 0.1% (TPA-induced ear edema; formulated in 95% ethanol),Topical Dose (% change vs. vehicle) 1.0% (TPA-induced ear edema; formulated in 95% ethanol),other results
"C[C@@H]1C[C@H]2[C@@H]3CCC4=CC(=O)C=C[C@]4(C)[C@@]3(F)[C@@H](O)C[C@]2(C)[C@@]1(O)C(=O)CO [Dexamethasone, dexamethasone, reference compound]",−92%,,Systemic Dose (% change vs. vehicle) 5 mg/kg (TPA-induced ear edema; systemic 5 mg/kg): >−80%; Topical Dose (% change vs. vehicle) 0.1% (TPA-induced ear edema; [2]): >−90* %
"CC[C@H]1OC(=O)[C@H](C)[C@@H](O[C@H]2C[C@@](C)(OC)[C@@H](O)[C@H](C)O2)[C@H](C)[C@@H](O[C@@H]2O[C@H](C)C[C@H](N(C)C)[C@H]2O)[C@](C)(O)C[C@@H](C)C(=O)[C@H](C)[C@@H](O)[C@]1(C)O [Erythromycin, erythromycin, reference compound]",,,Topical Dose (% change vs. vehicle) 0.1% (TPA-induced ear edema; [2]): −20* %; Topical Dose (% change vs. vehicle) 1.0% (TPA-induced ear edema; [2]): −67* %; Topical Dose (% change vs. vehicle) 5 0% (TPA-induced ear edema; [3]): −87* %
"C[C@]12CCC(=O)C=C1CC[C@@H]1[C@@H]2[C@@H](O)C[C@@]2(C)[C@H]1CC[C@]2(O)C(=O)CO [Hydrocortisone, hydrocortisone, reference compound]",,,% Inhibition of Inflammation [1]: 84.92%
"A-ILTWPWWPWTTT-CN (not fully specified; N-terminal A, C-terminal nitrile/amide) [Peptide 11B24ACN]",,,Topical Dose (% change vs. vehicle) 5 0% (TPA-induced ear edema; [4]): −75%
F R F F K P K F R F P K F (FRFFKPKFRFPKF-{CN}) [Peptide 11J33CN],,−52%,
H-GWRFLKLAWRFLKL-OH [Peptide 11J97],+33%,−29%,Topical Dose (% change vs. vehicle) 5 0% (TPA-induced ear edema; [4]): −49%
H-GWRFLKLAWRFLKLRR-OH [Peptide 11J136],−12%,−54%,
H-ILRWVWRIL-CN (H-ILRWVWRIL-{CN}) [Peptide 11J148CN],−33%,−74%,
H-ILRWVWRILR-CN (H-ILRWVWRILR-{CN}; not fully specified) [Peptide 11J131CN],−20%,−43%,
H-L(Orn)FL(Orn)W AF(Orn)L W(Orn)L-CN [Peptide 11J84CN],−14%,−35%,
H-LRFLKW(Aib)WRFLKL-CN [Peptide 11J105CN],−4%,−51%,
H-RILRW(Aib)WRILR-CN [Peptide 11J157CN],+5%,−55%,
H-RILRWVWRILR-CN (H-RILRWVWRILR-{CN}) [Peptide 11J115CN],−1%,−57%,
I L E E W P W W P W E E E (ILEEWPWWPWEEE-{CN}) [Peptide 11B11CN],,,Topical Dose (% change vs. vehicle) 5 0% (TPA-induced ear edema; [3]): −64* %
I L Q W P W W P W Q Q Q (ILQWPWWPWQQQ-{CN}) [Peptide 11B38CN],,−8%,Topical Dose (% change vs. vehicle) 5 0% (TPA-induced ear edema; [4]): −51%
I L T W P W W P W T T T (ILTWPWWPWTTT-{CN}) [Peptide 11B24CN],,−32%,Topical Dose (% change vs. vehicle) 5 0% (TPA-induced ear edema; [4]): −64%
